Where two headings read alike, the source gives them in different places.
Assays:
Capan-1 (K-Ras G12V) = assay: CellTiter-Glo cell viability assay, 5-day treatment; format: cell-based; conditions: Homo sapiens, CAPAN-1, 120 h, 5-day treatment; read-out: Capan-1 Cell Viability assay data (K-Ras G12V, IC50)
Summary of the method: (§1)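 Seeded cells received test compound by direct dispensing. On day 5 the plates sat at room temperature approximately 30 minutes, then luminescence was measured. Data were normalized to DMSO and curve-fitted with four parameters.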

NCI-H358 (K-Ras G12C) = assay: as above; format: cell-based; conditions: Homo sapiens, NCI-H358, 120 h, 5-day treatment; read-out: H358 Cell Viability assay data (K-Ras G12C, IC50)
Summary of the method: as §1

KRAS G13D = KRAS G13D (Homo sapiens, UniProt P01116+P62937, G13D); assay: Disruption of BRAF RBD interaction with Ras (FRET / MOA assay, with Cyclophilin A); format: biochemical
KRAS G13D, sequence (P01116 1-169 isoform P01116-2 G13D limits assumed): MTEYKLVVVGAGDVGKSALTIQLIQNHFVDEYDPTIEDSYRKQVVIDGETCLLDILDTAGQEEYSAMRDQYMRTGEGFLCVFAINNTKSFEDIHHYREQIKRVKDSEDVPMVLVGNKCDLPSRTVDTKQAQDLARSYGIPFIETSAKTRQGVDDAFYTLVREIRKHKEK
KRAS G13D, sequence (P62937 whole entry): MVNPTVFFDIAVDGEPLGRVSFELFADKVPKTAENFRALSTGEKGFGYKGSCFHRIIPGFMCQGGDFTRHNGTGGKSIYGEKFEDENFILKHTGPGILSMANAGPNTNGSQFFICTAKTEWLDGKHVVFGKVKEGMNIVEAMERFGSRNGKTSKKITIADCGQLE
Summary of the method: (§2)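 Cyclophilin A-dependent ternary complex assay. K-Ras loaded with nucleotide; BRAF RBD as effector. Cpd top 30 μM final, 3 h at 25 °C. Readout: TR-FRET ratio, IC50.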

KRAS G12C = KRAS G12C (Homo sapiens, UniProt P01116+P62937, G12C); assay: as above; format: biochemical
KRAS G12C, sequence (P01116 1-169 isoform P01116-2 G12C): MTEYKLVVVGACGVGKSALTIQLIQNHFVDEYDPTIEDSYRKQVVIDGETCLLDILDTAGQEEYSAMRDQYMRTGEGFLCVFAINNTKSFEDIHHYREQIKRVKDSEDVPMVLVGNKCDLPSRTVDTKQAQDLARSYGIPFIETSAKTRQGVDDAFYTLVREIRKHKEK
KRAS G12C, sequence (P62937 whole entry): as the sequence (P62937 whole entry) above
Summary of the method: as §2

KRAS G12S = KRAS G12S (Homo sapiens, UniProt P01116+P62937, G12S); assay: as above; format: biochemical
KRAS G12S, sequence (P01116 1-169 isoform P01116-2 G12S limits assumed): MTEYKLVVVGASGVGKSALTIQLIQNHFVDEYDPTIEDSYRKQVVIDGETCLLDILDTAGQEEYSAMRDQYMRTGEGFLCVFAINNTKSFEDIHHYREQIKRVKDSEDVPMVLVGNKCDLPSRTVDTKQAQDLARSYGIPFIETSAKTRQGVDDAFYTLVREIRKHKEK
KRAS G12S, sequence (P62937 whole entry): as the sequence (P62937 whole entry) above
Summary of the method: as §2

KRAS G12D = KRAS G12D (Homo sapiens, UniProt P01116+P62937, G12D); assay: as above; format: biochemical
KRAS G12D, sequence (P01116 1-169 isoform P01116-2 G12D limits assumed): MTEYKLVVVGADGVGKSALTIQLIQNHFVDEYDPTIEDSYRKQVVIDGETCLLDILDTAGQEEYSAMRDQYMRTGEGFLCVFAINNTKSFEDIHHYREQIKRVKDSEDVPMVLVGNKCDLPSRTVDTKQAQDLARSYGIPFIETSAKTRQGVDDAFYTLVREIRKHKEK
KRAS G12D, sequence (P62937 whole entry): as the sequence (P62937 whole entry) above
Summary of the method: as §2

KRAS G12V = KRAS G12V (Homo sapiens, UniProt P01116+P62937, G12V); assay: as above; format: biochemical
KRAS G12V, sequence (P01116 1-169 isoform P01116-2 G12V limits assumed): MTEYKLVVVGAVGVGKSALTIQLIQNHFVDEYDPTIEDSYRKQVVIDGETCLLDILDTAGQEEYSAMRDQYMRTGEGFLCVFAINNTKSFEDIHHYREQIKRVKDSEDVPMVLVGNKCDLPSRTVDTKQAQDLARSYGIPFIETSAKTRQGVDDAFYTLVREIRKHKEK
KRAS G12V, sequence (P62937 whole entry): as the sequence (P62937 whole entry) above
Summary of the method: as §2

NRAS G12C = NRAS G12C (Homo sapiens, UniProt P01111+P62937, G12C); assay: as above; format: biochemical
NRAS G12C, sequence (P01111 whole entry G12C): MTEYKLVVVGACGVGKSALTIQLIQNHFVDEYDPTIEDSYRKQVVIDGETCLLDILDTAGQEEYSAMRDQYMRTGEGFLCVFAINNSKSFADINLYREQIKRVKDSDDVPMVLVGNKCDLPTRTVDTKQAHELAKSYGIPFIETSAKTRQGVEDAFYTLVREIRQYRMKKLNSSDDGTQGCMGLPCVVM
NRAS G12C, sequence (P62937 whole entry): as the sequence (P62937 whole entry) above

KRAS G13C = KRAS G13C (Homo sapiens, UniProt P01116+P62937, G13C); assay: as above; format: biochemical
KRAS G13C, sequence (P01116 1-169 isoform P01116-2 G13C): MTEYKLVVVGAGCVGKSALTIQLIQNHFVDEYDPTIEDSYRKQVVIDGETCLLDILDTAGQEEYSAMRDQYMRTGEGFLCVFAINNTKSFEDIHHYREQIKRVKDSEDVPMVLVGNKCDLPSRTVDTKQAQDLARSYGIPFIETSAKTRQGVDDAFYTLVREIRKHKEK
KRAS G13C, sequence (P62937 whole entry): as the sequence (P62937 whole entry) above
Summary of the method: as §2

KRAS WT = KRAS WT (Homo sapiens, UniProt P01116+P62937); assay: as above; format: biochemical
KRAS WT, sequence (P01116 1-169 isoform P01116-2 limits assumed): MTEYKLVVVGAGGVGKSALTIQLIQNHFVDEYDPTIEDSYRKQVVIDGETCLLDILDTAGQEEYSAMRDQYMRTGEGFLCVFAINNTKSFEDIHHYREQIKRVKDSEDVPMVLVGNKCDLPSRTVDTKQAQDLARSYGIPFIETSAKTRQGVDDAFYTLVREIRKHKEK
KRAS WT, sequence (P62937 whole entry): as the sequence (P62937 whole entry) above
Summary of the method: as §2

[1] = KRAS G13D, read-out: KRAS G13D FRET data IC50
[2] = read-out: KRAS G12C FRET data, IC50
[3] = read-out: KRAS G12S FRET data, IC50
[4] = read-out: KRAS G12D FRET data, IC50
[5] = KRAS G12V, read-out: KRAS G12V FRET data IC50
[6] = NRAS G12C, read-out: NRAS G12C FRET data IC50
[7] = read-out: KRAS G13C FRET data, IC50
[8] = KRAS WT, read-out: KRAS WT FRET data IC50

Measured: IC50

CCN(C(=O)N(C)[C@H](C(=O)N[C@H]1Cc2nc(cs2)-c2ccc3c(c2)c(c(-c2cccnc2[C@H](C)OC)n3CC)CC(C)(C)COC(=O)[C@@H]2CCCN(N2)C1=O)C(C)C)C(C)C [Example A333]
10 to 100 nM: NCI-H358 (K-Ras G12C) | KRAS G12C; [2] | NRAS G12C; [6] | KRAS WT; [8]
100 to 1000 nM: Capan-1 (K-Ras G12V) | KRAS G13D; [1] | KRAS G12S; [3] | KRAS G12D; [4] | KRAS G12V; [5] | KRAS G13C; [7]

CCn1c(-c2cccnc2[C@H](C)OC)c2c3cc(ccc31)-c1cc(O)cc(c1)C[C@H](NC(=O)C(C1CC1)C1CC1)C(=O)N1CCC[C@H](N1)C(=O)OCC(C)(C)C2 [Example A184]
100 to 1000 nM: NCI-H358 (K-Ras G12C) | KRAS G13D; [1] | KRAS G12C; [2] | KRAS G12S; [3] | KRAS G12V; [5] | NRAS G12C; [6] | KRAS WT; [8]
1000 to 10000 nM: Capan-1 (K-Ras G12V) | KRAS G12D; [4]
10 to 100 nM: KRAS G13C; [7]

CCn1c(-c2cnccc2COC)c2c3cc(ccc31)-c1cc(O)cc(c1)C[C@H](NC(=O)[C@H](C(C)C)N(C)C(=O)O[C@H]1CCOC1)C(=O)N1CCC[C@H](N1)C(=O)OCC(C)(C)C2 [Example A260]
100 to 1000 nM: NCI-H358 (K-Ras G12C) | KRAS G12C; [2] | KRAS G12S; [3] | NRAS G12C; [6] | KRAS WT; [8]
1000 to 10000 nM: Capan-1 (K-Ras G12V) | KRAS G13D; [1] | KRAS G12D; [4] | KRAS G12V; [5] | KRAS G13C; [7]

CCn1c(-c2cnccc2COC)c2c3cc(ccc31)-c1cc(O)cc(c1)C[C@H](NC(=O)[C@H](C(C)C)N(C)C(=O)[C@H]1CCOC1)C(=O)N1CCC[C@H](N1)C(=O)OCC(C)(C)C2 [Example A26]
100 to 1000 nM: Capan-1 (K-Ras G12V) | NCI-H358 (K-Ras G12C) | KRAS G13D; [1] | KRAS G12C; [2] | KRAS G12S; [3] | KRAS G12V; [5] | NRAS G12C; [6] | KRAS G13C; [7] | KRAS WT; [8]
1000 to 10000 nM: KRAS G12D; [4]

CCn1c(-c2cccnc2[C@H](C)OC)c2c3cc(ccc31)-c1cc(O)cc(c1)C[C@H](NC(=O)[C@H](C(C)C)N(C)C(=O)[C@@H]1C[C@H]1C)C(=O)N1CCC[C@H](N1)C(=O)OCC(C)(C)C2 [Example A147]
100 to 1000 nM: Capan-1 (K-Ras G12V) | KRAS G13D; [1] | KRAS G12D; [4]
10 to 100 nM: NCI-H358 (K-Ras G12C) | KRAS G12C; [2] | KRAS G12S; [3] | KRAS G12V; [5] | NRAS G12C; [6] | KRAS G13C; [7] | KRAS WT; [8]

CCn1c(-c2cnccc2COC)c2c3cc(ccc31)-c1cc(O)cc(c1)C[C@H](NC(=O)[C@H](C(C)C)N(C)C(=O)C1CCN(C)CC1)C(=O)N1CCC[C@H](N1)C(=O)OCC(C)(C)C2 [Example A84]
100 to 1000 nM: KRAS G13D; KRAS G13D FRET data IC50, KRAS G13D | KRAS G12C; KRAS G12C FRET data, IC50 | KRAS G12S; KRAS G12S FRET data, IC50 | KRAS G13C; KRAS G13C FRET data, IC50 | KRAS WT; KRAS WT FRET data IC50, KRAS WT
> 10000 nM: Capan-1 (K-Ras G12V) | NCI-H358 (K-Ras G12C)
1000 to 10000 nM: KRAS G12D; KRAS G12D FRET data, IC50 | KRAS G12V; KRAS G12V FRET data IC50, KRAS G12V | NRAS G12C; NRAS G12C FRET data IC50, NRAS G12C

CCn1c(-c2cccnc2[C@H](C)OC)c2c3cc(ccc31)-c1csc(n1)C[C@H](NC(=O)[C@H](C(C)C)N(C)C(=O)[C@@H]1C[C@@H]1C)C(=O)N1CCC[C@H](N1)C(=O)OCC(C)(C)C2 [Example A239]
1000 to 10000 nM: KRAS G13D; [1] | KRAS G12C; [2] | KRAS G12S; [3] | KRAS G12D; [4] | KRAS G12V; [5] | NRAS G12C; [6] | KRAS G13C; [7] | KRAS WT; [8]
100 to 1000 nM: Capan-1 (K-Ras G12V) | NCI-H358 (K-Ras G12C)

CCn1c(-c2cccnc2[C@H](C)OC)c2c3cc(ccc31)-c1cc(O)cc(c1)C[C@H](NC(=O)[C@H](C(C)C)N(C)C(=O)[C@H]1CC1(F)F)C(=O)N1CCC[C@H](N1)C(=O)OCC(C)(C)C2 [Example A166]
100 to 1000 nM: Capan-1 (K-Ras G12V) | NCI-H358 (K-Ras G12C) | KRAS G13D; [1] | KRAS G12S; [3] | KRAS G12D; [4] | KRAS G12V; [5]
10 to 100 nM: KRAS G12C; [2] | NRAS G12C; [6] | KRAS G13C; [7] | KRAS WT; [8]
